Data on two compounds can be found in ChEMBL document CHEMBL2074493, “Reversal of multidrug resistance-associated protein-mediated drug resistance by the pyridine analog PAK-104P” (Mol Pharmacol, 1997).

Data set [1] deals with T1, Multidrug resistance-associated protein 1 (Homo sapiens, UniProt P33527). In words: TP_TRANSPORTER: intracellular accumulation in KB-3-1 and C-A120 cells. Type of data set: functional, cell-based, KB-3-1; C-A120.
Data set [2] has as its target T1, Multidrug resistance-associated protein 1. In words: TP_TRANSPORTER: increase in Vincristine intracellular accumulation (Vincristine: 1 uM, PAK-104P: 10 uM) in KB-3-1 and C-A120 cell. Type of data set: functional, cell-based. As to conditions: kb-3-1;c-a120, 10 µM.

T1 sequence (P33527 whole entry): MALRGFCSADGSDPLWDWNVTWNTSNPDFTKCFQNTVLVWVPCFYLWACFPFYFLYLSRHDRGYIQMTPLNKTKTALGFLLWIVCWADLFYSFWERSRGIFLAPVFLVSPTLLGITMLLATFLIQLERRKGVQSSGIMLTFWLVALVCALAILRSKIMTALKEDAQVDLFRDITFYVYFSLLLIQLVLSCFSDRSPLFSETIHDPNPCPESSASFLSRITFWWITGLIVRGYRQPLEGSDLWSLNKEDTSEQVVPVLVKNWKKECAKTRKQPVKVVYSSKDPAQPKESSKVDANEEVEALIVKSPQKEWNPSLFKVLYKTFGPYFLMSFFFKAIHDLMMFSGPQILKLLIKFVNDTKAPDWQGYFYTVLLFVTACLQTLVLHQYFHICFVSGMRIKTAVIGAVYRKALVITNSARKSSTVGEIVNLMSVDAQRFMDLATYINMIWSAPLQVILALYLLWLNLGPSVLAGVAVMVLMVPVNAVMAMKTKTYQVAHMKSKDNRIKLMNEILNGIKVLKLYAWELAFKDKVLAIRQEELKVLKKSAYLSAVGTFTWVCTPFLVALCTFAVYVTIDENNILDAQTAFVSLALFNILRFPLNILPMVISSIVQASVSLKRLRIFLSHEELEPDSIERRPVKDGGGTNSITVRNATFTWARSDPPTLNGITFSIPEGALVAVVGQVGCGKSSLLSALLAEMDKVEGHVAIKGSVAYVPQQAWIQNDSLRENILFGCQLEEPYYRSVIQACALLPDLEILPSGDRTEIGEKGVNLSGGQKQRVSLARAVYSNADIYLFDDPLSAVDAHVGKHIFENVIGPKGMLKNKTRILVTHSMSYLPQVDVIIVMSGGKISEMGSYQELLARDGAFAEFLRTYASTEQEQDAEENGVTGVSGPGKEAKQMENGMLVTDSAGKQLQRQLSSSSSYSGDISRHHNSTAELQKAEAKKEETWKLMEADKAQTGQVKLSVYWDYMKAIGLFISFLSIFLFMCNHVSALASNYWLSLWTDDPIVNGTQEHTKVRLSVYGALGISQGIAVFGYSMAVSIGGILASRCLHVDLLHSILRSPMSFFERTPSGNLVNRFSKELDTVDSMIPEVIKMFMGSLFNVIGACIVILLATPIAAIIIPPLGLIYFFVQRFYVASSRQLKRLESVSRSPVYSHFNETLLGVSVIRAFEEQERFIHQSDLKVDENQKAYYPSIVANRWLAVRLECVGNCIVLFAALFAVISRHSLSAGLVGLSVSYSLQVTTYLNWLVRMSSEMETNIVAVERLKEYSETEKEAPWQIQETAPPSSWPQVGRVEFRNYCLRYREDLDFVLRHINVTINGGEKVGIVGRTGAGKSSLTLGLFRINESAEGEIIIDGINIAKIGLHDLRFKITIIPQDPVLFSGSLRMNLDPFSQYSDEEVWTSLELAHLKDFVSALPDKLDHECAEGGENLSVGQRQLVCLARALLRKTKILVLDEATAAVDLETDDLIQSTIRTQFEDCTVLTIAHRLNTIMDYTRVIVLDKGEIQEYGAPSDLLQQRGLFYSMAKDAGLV

For `CC[C@]1(O)C[C@H]2CN(CCc3c([nH]c4ccccc34)[C@@](C(=O)OC)(c3cc4c(cc3OC)N(C=O)[C@H]3[C@@](O)(C(=O)OC)[C@H](OC(C)=O)[C@]5(CC)C=CCN6CC[C@]43[C@@H]65)C2)C1` [VINCRISTINE], in data set [1], the Activity entry was “substrate [+]”. On to `Cc1nc(C)c(P2(=O)O[C@H](C)C[C@@H](C)O2)c(-c2cccc([N+](=O)[O-])c2)c1C(=O)OCCN1CCN(C(c2ccccc2)c2ccccc2)CC1` (some centres not stated), for which, in data set [2], the Activity entry is “inhibitor [1.3 to 1.7-fold]”.
